Patent publication US12643887B2, “Heterocyclic derivatives with cardiomyocyte proliferation activity for treatment of heart diseases” (Tongji University, priority 2019, dated 2026)
pIC50: −log10 of the molar value.

What was measured:
human DYRK1A = molecular target: T1, human DYRK1A (Homo sapiens, UniProt Q13627); test: DYRK1A enzyme assay (ADP-Glo); type: biochemical; settings: ADP-Glo, ATP 60 μM; read-out: DYRK1A IC50
T1 construct: Recombinant full-length DYRK1A (expressed in E. Coli cells with an N-terminal GST tag); GST (N); purchased SignalChem D09-10G; host or cells: E. coli
Procedure, shortened: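 ADP formed is quantified by luciferase luminescence (ADP-Glo) after a 60-minute, 25 °C reaction with 60 μM ATP and 20 μM DYRKtide peptide. Enzyme: 3 nM recombinant N-terminal GST DYRK1A, given 30 min compound preincubation in Tris pH 7.5/MgCl2/BSA/DTT buffer; % inhibition versus plate controls, four-parameter IC50.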

[1] = system: Neonatal Rat Ventricular Myocytes (NRVMs); test: Myocyte proliferation assay (EdU assay) in neonatal rat ventricular myocytes; type: cell-based; settings: growth relative to blank myocyte growth without compound added; for Avg 1 uM (average myocyte proliferation): compound 1 uM; for Avg 3 uM (average myocyte proliferation): compound 3 uM
Procedure, shortened: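 After 36 h compound exposure (1, 3 or 10 uM in 6% FBS/ITS DMEM, following 24 h low-serum culture), NRVMs were pulsed with EdU for 12 h. Proliferation scored by automated confocal imaging of EdU click chemistry, ab8295 immunostaining and DAPI nuclei in fixed cultures.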

| pIC50 (human DYRK1A) | SMILES | Avg 1 uM (average myocyte proliferation) [1] | Avg 3 uM (average myocyte proliferation) [1] |
| --- | --- | --- | --- |
| < 5.00 | Cn1cnc2cc(/C=C3\N=C(Nc4ccccc4)NC3=O)ccc21 [Example 71, (Z)-5-((1-methyl-1H-benzo[d]imidazol-5-yl)methylene)-2-(phenylamino)-3,5-dihydro-4H-imidazol-4-one] | * (<10% growth relative to blank myocyte growth without compound added.) | * (<10% growth relative to blank myocyte growth without compound added.) |
| < 5.00 | O=C1NC(Nc2ccccc2)=N/C1=C\c1ccc2sccc2c1 [Example 72, (Z)-5-(benzo[b]thiophen-5-ylmethylene)-2-(phenylamino)-3,5-dihydro-4H-imidazol-4-one] | * (<10% growth relative to blank myocyte growth without compound added.) | * (<10% growth relative to blank myocyte growth without compound added.) |
| < 5.00 | O=C1NC(Nc2ccc3ncsc3c2)=N/C1=C\c1ccc2c(c1)OCCO2 [Example 74, (Z)-2-(benzo[d]thiazol-6-ylamino)-5-((2,3-dihydrobenzo[b][1,4]dioxin-6-yl)methylene)-3,5-dihydro-4H-imidazol-4-one] | * (<10% growth relative to blank myocyte growth without compound added.) | *** (>50%) |
| > 7.00 | O=C1NC(Nc2ccc3ncsc3c2)=N/C1=C\c1ccc2nc[nH]c2c1 [Example 76, (Z)-5-((1H-benzo[d]imidazol-6-yl)methylene)-2-(benzo[d]thiazol-6-ylamino)-3,5-dihydro-4H-imidazol-4-one] | * (<10% growth relative to blank myocyte growth without compound added.) | ** (10%-50%) |
| < 5.00 | Cn1ncc2cc(/C=C3\N=C(Nc4ccc5ncsc5c4)NC3=O)ccc21 [Example 78, (Z)-2-(benzo[d]thiazol-6-ylamino)-5-((1-methyl-1H-indazol-5-yl)methylene)-3,5-dihydro-4H-imidazol-4-one] | * (<10% growth relative to blank myocyte growth without compound added.) | * (<10% growth relative to blank myocyte growth without compound added.) |
| > 7.00 | O=C1NC(Nc2ccc3c(c2)OCCO3)=N/C1=C\c1ccc2ncsc2c1 [Example 81, (Z)-5-(benzo[d]thiazol-6-ylmethylene)-2-((2,3-dihydrobenzo[b][1,4]dioxin-6-yl)amino)-3,5-dihydro-4H-imidazol-4-one] | * (<10% growth relative to blank myocyte growth without compound added.) | * (<10% growth relative to blank myocyte growth without compound added.) |
| 6.00 to 7.00 | CN(C1=N/C(=C\c2ccc3ncsc3c2)C(=O)N1)c1ccc2ncsc2c1 [Example 83, (Z)-2-(benzo[d]thiazol-6-yl(methyl)amino)-5-(benzo[d]thiazol-6-ylmethylene)-3,5-dihydro-4H-imidazol-4-one] | ** (10%-50%) | ** (10%-50%) |
| 6.00 to 7.00 | CN(C1=N/C(=C\c2ccc3c(c2)OCCO3)C(=O)N1)c1ccc2ncsc2c1 [Example 84, (Z)-2-(benzo[d]thiazol-6-yl(methyl)amino)-5-((2,3-dihydrobenzo[b][1,4]dioxin-6-yl)methylene)-3,5-dihydro-4H-imidazol-4-one] | * (<10% growth relative to blank myocyte growth without compound added.) | ** (10%-50%) |

Further lines, the molecule ahead of its results:

| SMILES | pIC50 (human DYRK1A) | Avg 1 uM (average myocyte proliferation) [1] | Avg 3 uM (average myocyte proliferation) [1] |
| --- | --- | --- | --- |
| Cn1cnc2cc(NC3=N/C(=C\c4ccc5ncsc5c4)C(=O)N3)ccc21 [Example 61, (Z)-5-(benzo[d]thiazol-6-ylmethylene)-2-((1-methyl-1H-benzo[d]imidazol-5-yl)amino)-3,5-dihydro-4H-imidazol-4-one] | > 7.00 | * (<10% growth relative to blank myocyte growth without compound added.) | ** (10%-50%) |
| O=C1NC(Nc2ccc3ncsc3c2)=N/C1=C\c1ccc2cc[nH]c2c1 [Example 63, (Z)-5-((1H-indol-6-yl)methylene)-2-(benzo[d]thiazol-6-ylamino)-3,5-dihydro-4H-imidazol-4-one] | < 5.00 | * (<10% growth relative to blank myocyte growth without compound added.) | * (<10% growth relative to blank myocyte growth without compound added.) |
| O=C1NC(Nc2ccc3[nH]ccc3c2)=N/C1=C\c1ccc2ncsc2c1 [Example 69, (Z)-2-((1H-indol-5-yl)amino)-5-(benzo[d]thiazol-6-ylmethylene)-3,5-dihydro-4H-imidazol-4-one] | > 7.00 | ** (10%-50%) | * (<10% growth relative to blank myocyte growth without compound added.) |
| CN(C1=N/C(=C\c2ccc3c(c2)OCO3)C(=O)N1)c1ccc2ncsc2c1 [Example 70, (Z)-5-(benzo[d][1,3]dioxol-5-ylmethylene)-2-(benzo[d]thiazol-6-yl(methyl)amino)-3,5-dihydro-4H-imidazol-4-one] | < 5.00 | ** (10%-50%) | ** (10%-50%) |
| O=C1NC(Nc2ccccc2)=N/C1=C\c1ccc2cc[nH]c2c1 [Example 73, (Z)-5-((1H-indol-6-yl)methylene)-2-(phenylamino)-3,5-dihydro-4H-imidazol-4-one] | < 5.00 | * (<10% growth relative to blank myocyte growth without compound added.) | * (<10% growth relative to blank myocyte growth without compound added.) |
| Cn1cnc2ccc(/C=C3\N=C(Nc4ccc5ncsc5c4)NC3=O)cc21 [Example 75, (Z)-2-(benzo[d]thiazol-6-ylamino)-5-((1-methyl-1H-benzo[d]imidazol-6-yl)methylene)-3,5-dihydro-4H-imidazol-4-one] | > 7.00 | ** (10%-50%) | ** (10%-50%) |
| Cn1ncc2cc(/C=C3\N=C(Nc4ccccc4)NC3=O)ccc21 [Example 77, (Z)-5-((1-methyl-1H-indazol-5-yl)methylene)-2-(phenylamino)-3,5-dihydro-4H-imidazol-4-one] | > 7.00 | * (<10% growth relative to blank myocyte growth without compound added.) | * (<10% growth relative to blank myocyte growth without compound added.) |
| Cn1ncc2ccc(/C=C3\N=C(Nc4ccccc4)NC3=O)cc21 [Example 79, 5-((1-methyl-1H-indazol-6-yl)methylene)-2-(phenylamino)-3,5-dihydro-4H-imidazol-4-one] | < 5.00 | * (<10% growth relative to blank myocyte growth without compound added.) | * (<10% growth relative to blank myocyte growth without compound added.) |
| Cn1ncc2ccc(/C=C3\N=C(Nc4ccc5ncsc5c4)NC3=O)cc21 [Example 80, (Z)-2-(benzo[d]thiazol-6-ylamino)-5-((1-methyl-1H-indazol-6-yl)methylene)-3,5-dihydro-4H-imidazol-4-one] | < 5.00 | * (<10% growth relative to blank myocyte growth without compound added.) | * (<10% growth relative to blank myocyte growth without compound added.) |
